Measurements as given in patent US10065963B2 (Incyte Corporation, priority 2015, dated 2018).
Structures can show the parent of a compound that is named as a salt.

Columns and labels:
[1] = tested on: Phosphorylated Ribosomal Protein S6 (RPS6) in THP-1 cells; test: THP-1 RPS6 ELISA assay; type: cell-based, human; details: Homo sapiens, THP-1, THP-1 cells, 10 nM MCP-1; read-out: PI3Kγ_THP1_RPS6_ELISA IC50
[2] = target: PI3Kγ (p110γ) Recombinant Human Protein (Homo sapiens (Human), UniProt P48736); test: PI3K-γ scintillation proximity assay; type: biochemical; details: 2 μM ATP, 20 μM PIP2
[3] = target: PI3Kδ (p110δ/p85α) Recombinant Human Protein (Homo sapiens (Human), UniProt O00329); test: PI3Kδ scintillation proximity assay; type: biochemical; details: 2 μM ATP, 20 μM PIP2
PI3Kδ (p110δ/p85α) Recombinant Human Protein, sequence (O00329 whole entry): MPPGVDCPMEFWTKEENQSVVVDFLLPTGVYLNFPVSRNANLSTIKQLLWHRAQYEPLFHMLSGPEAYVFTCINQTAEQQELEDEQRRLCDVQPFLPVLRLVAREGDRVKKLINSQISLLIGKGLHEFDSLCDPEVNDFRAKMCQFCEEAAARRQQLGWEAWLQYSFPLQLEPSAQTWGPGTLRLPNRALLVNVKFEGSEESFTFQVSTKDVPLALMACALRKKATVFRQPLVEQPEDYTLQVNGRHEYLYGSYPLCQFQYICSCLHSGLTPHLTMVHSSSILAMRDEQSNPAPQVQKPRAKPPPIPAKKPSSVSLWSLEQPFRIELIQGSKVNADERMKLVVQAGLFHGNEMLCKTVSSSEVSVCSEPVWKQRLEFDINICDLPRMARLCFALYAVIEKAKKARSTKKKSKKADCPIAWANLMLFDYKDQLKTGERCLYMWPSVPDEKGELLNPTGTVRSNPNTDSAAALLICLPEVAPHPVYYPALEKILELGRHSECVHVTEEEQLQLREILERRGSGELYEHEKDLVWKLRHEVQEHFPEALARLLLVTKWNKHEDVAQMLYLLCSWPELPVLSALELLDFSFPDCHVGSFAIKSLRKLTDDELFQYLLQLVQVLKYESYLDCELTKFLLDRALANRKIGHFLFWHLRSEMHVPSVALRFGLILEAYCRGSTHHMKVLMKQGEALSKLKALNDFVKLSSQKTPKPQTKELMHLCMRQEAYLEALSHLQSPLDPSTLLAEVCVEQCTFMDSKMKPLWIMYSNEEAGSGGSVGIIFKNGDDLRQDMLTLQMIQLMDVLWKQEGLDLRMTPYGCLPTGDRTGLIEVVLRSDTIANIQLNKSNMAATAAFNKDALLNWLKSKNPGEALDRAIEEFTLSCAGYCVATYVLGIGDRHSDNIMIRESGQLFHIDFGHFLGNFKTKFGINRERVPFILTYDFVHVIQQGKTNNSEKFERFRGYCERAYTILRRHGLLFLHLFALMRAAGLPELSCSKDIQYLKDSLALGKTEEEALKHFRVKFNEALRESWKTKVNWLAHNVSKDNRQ
PI3Kδ (p110δ/p85α) Recombinant Human Protein, sequence (P27986 whole entry partner): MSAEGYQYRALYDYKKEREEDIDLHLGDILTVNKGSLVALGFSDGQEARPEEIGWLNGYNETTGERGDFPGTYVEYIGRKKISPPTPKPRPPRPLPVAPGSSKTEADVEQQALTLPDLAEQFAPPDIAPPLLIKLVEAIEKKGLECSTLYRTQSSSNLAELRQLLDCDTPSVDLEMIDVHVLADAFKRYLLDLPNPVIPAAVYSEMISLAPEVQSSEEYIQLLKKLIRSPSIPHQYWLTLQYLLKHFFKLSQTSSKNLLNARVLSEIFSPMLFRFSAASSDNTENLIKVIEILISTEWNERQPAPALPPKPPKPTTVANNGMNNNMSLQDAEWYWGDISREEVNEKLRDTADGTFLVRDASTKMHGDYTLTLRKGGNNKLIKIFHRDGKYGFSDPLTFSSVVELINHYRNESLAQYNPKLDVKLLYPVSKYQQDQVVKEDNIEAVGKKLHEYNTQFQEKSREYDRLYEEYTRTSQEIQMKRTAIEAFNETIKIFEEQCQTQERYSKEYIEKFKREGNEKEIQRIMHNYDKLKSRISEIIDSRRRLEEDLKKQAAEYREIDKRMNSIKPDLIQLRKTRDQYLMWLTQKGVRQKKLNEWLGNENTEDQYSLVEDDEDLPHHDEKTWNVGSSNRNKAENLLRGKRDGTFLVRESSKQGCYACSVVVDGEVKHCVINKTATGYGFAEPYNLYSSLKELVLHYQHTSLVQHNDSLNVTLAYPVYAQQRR

PI3Kγ (p110γ) Recombinant Human Protein, sequence (P48736 whole entry): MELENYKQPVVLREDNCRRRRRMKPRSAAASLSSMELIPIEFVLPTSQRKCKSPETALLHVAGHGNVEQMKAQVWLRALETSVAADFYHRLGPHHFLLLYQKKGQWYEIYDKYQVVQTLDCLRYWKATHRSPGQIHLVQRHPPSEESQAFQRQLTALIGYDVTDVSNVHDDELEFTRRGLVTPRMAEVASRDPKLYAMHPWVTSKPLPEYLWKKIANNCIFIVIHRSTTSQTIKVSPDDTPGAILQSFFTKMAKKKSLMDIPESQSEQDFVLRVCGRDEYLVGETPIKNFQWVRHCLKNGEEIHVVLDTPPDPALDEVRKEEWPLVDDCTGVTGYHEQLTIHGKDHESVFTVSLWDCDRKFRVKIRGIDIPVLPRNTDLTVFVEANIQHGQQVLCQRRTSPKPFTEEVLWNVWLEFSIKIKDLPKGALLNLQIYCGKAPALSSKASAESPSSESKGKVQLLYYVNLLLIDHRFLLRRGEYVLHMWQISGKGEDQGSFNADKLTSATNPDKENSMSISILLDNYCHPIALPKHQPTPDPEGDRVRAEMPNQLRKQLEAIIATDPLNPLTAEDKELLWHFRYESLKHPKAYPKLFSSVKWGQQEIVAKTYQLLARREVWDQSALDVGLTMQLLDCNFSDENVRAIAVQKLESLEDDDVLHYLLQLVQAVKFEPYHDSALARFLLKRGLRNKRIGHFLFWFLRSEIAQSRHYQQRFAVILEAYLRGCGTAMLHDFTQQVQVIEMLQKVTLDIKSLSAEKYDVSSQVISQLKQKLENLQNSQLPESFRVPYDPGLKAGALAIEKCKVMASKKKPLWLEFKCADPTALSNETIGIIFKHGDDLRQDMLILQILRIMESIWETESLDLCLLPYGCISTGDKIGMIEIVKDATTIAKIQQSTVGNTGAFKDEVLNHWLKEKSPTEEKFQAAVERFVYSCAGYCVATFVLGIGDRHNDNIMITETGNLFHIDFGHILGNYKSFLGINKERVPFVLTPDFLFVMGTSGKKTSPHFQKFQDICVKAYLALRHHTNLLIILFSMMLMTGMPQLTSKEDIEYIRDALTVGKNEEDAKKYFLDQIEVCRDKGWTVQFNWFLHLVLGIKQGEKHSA

| IC50 [1] | IC50 [2] | IC50 [3] | Structure (SMILES) |
| --- | --- | --- | --- |
| < 0.5 µM | < 0.1 µM | < 0.1 µM | CC(NC(=O)c1c(N)nn2cccnc12)c1cc(Cl)c2cncn2c1-c1cccnc1 (racemic) [Example 127, 2-Amino-N-[1-(8-chloro-5-pyridin-3-ylimidazo[1,5-a]pyridin-6-yl)ethyl]pyrazolo[1,5-a]pyrimidine-3-carboxamide trifluoroacetate salt] |
| > 1 µM | < 0.1 µM | < 2 µM | CC(NC(=O)c1c(N)nn2cccnc12)c1cc(Cl)c2c(C#N)ncn2c1-c1cccnc1 (racemic) [Example 128, 2-Amino-N-[1-(8-chloro-1-cyano-5-pyridin-3-ylimidazo[1,5-a]pyridin-6-yl)ethyl]pyrazolo[1,5-a]pyrimidine-3-carboxamide trifluoroacetate salt] |
| < 1 µM | < 0.1 µM | < 2 µM | Cc1ncn2c(-c3cccnc3)c(C(C)NC(=O)c3c(N)nn4cccnc34)cc(Cl)c12 (racemic) [Example 129, 2-Amino-N-[1-(8-chloro-1-methyl-5-pyridin-3-ylimidazo[1,5-a]pyridin-6-yl)ethyl]pyrazolo[1,5-a]pyrimidine-3-carboxamide trifluoroacetate salt] |
| < 0.5 µM | < 0.1 µM | < 0.5 µM | CC(NC(=O)c1c(N)nn2cccnc12)c1cc(Cl)c2cncn2c1-c1cc[nH]n1 (racemic) [Example 130, 2-Amino-N-{1-[8-chloro-5-(1H-pyrazol-3-yl)imidazo[1,5-a]pyridin-6-yl]ethyl}pyrazolo[1,5-a]pyrimidine-3-carboxamide trifluoroacetate salt] |
| < 0.5 µM | < 0.1 µM | < 0.1 µM | CC(NC(=O)c1c(N)nn2cccnc12)c1cc(Cl)c2cncn2c1-c1cncc(S(C)(=O)=O)c1 (racemic) [Example 131, 2-Amino-N-(1-{8-chloro-5-[5-(methylsulfonyl)pyridin-3-yl]imidazo[1,5-a]pyridin-6-yl}ethyl)pyrazolo[1,5-a]pyrimidine-3-carboxamide trifluoroacetate salt] |
| < 0.5 µM | < 0.1 µM | < 0.5 µM | CC(NC(=O)c1c(N)nn2cccnc12)c1cc(Cl)c2cncn2c1-c1ccccn1 (racemic) [Example 133, 2-Amino-N-[1-(8-chloro-5-pyridin-2-ylimidazo[1,5-a]pyridin-6-yl)ethyl]pyrazolo[1,5-a]pyrimidine-3-carboxamide trifluoroacetate salt] |
| > 1 µM | < 0.1 µM | < 0.5 µM | CNS(=O)(=O)c1ccc(-c2c(C(C)NC(=O)c3c(N)nn4cccnc34)cc(Cl)c3cncn23)cc1 (racemic) [Example 135, 2-Amino-N-[1-(8-chloro-5-{4-[(methylamino)sulfonyl]phenyl}imidazo[1,5-a]pyridin-6-yl)ethyl]pyrazolo[1,5-a]pyrimidine-3-carboxamide trifluoroacetate salt] |
| > 1 µM | < 0.1 µM | < 0.5 µM | CC(NC(=O)c1c(N)nn2cccnc12)c1cc(Cl)c2cncn2c1-c1ccc(S(C)(=O)=O)cc1 (racemic) [Example 136, 2-Amino-N-(1-{8-chloro-5-[4-(methylsulfonyl)phenyl]imidazo[1,5-a]pyridin-6-yl}ethyl)pyrazolo[1,5-a]pyrimidine-3-carboxamide trifluoroacetate salt] |
| < 0.5 µM | < 0.1 µM | < 0.1 µM | CC(NC(=O)c1c(N)nn2cccnc12)c1cc(Cl)c2cncn2c1-c1cncc(C#N)c1 (racemic) [Example 137, 2-Amino-N-{1-[8-chloro-5-(5-cyanopyridin-3-yl)imidazo[1,5-a]pyridin-6-yl]ethyl}pyrazolo[1,5-a]pyrimidine-3-carboxamide trifluoroacetate salt] |
| < 1 µM | < 0.1 µM | < 0.5 µM | CC(NC(=O)c1c(N)nn2cccnc12)c1cc(Cl)c2cncn2c1-c1cnccn1 (racemic) [Example 138, 2-Amino-N-[1-(8-chloro-5-pyrazin-2-ylimidazo[1,5-a]pyridin-6-yl)ethyl]pyrazolo[1,5-a]pyrimidine-3-carboxamide trifluoroacetate salt] |
| < 0.5 µM | < 0.1 µM | < 0.1 µM | CC(NC(=O)c1c(N)nn2cccnc12)c1cc(Cl)c2cncn2c1-c1cn[nH]c1 (racemic) [Example 139, 2-Amino-N-{1-[8-chloro-5-(1H-pyrazol-4-yl)imidazo[1,5-a]pyridin-6-yl]ethyl}pyrazolo[1,5-a]pyrimidine-3-carboxamide trifluoroacetate salt] |
| < 0.5 µM | < 0.1 µM | < 0.1 µM | CC(NC(=O)c1c(N)nn2cccnc12)c1cc(Cl)c2cncn2c1-c1cnn(C)c1 (racemic) [Example 140, 2-Amino-N-{1-[8-chloro-5-(1-methyl-1H-pyrazol-4-yl)imidazo[1,5-a]pyridin-6-yl]ethyl}pyrazolo[1,5-a]pyrimidine-3-carboxamide trifluoroacetate salt] |
| < 0.5 µM | < 0.1 µM | < 0.5 µM | CC(NC(=O)c1c(N)nn2cccnc12)c1cc(Cl)c2cncn2c1N1CCN(S(C)(=O)=O)CC1 (racemic) [Example 141, 2-Amino-N-(1-{8-chloro-5-[4-(methylsulfonyl)piperazin-1-yl]imidazo[1,5-a]pyridin-6-yl}ethyl)pyrazolo[1,5-a]pyrimidine-3-carboxamide trifluoroacetate salt] |
| < 0.5 µM | < 0.1 µM | < 0.1 µM | CC(NC(=O)c1c(N)nn2cccnc12)c1cc(Cl)c2cncn2c1N1CCCC1 (racemic) [Example 142, 2-Amino-N-[1-(8-chloro-5-pyrrolidin-1-ylimidazo[1,5-a]pyridin-6-yl)ethyl]pyrazolo[1,5-a]pyrimidine-3-carboxamide trifluoroacetate salt] |
| < 1 µM | < 0.1 µM | < 0.5 µM | COC1CCN(c2c(C(C)NC(=O)c3c(N)nn4cccnc34)cc(Cl)c3cncn23)CC1 (racemic) [Example 143, 2-Amino-N-{1-[8-chloro-5-(4-methoxypiperidin-1-yl)imidazo[1,5-a]pyridin-6-yl]ethyl}pyrazolo[1,5-a]pyrimidine-3-carboxamide] |
| > 1 µM | < 0.1 µM | < 0.1 µM | CC(NC(=O)c1c(N)nn2cccnc12)c1cc(Cl)c2cncn2c1N1CCOCC1 (racemic) [Example 145, 2-Amino-N-[1-(8-chloro-5-morpholin-4-ylimidazo[1,5-a]pyridin-6-yl)ethyl]pyrazolo[1,5-a]pyrimidine-3-carboxamide trifluoroacetate salt] |
| < 0.5 µM | < 0.1 µM | < 0.1 µM | CC(NC(=O)c1c(N)nn2cccnc12)c1cc(Cl)c2cncn2c1N1CCC(O)CC1 (racemic) [Example 146, 2-Amino-N-{1-[8-chloro-5-(4-hydroxypiperidin-1-yl)imidazo[1,5-a]pyridin-6-yl]ethyl}pyrazolo[1,5-a]pyrimidine-3-carboxamide trifluoroacetate salt] |
| < 0.5 µM | < 0.1 µM | < 0.5 µM | CC(NC(=O)c1c(N)nn2cccnc12)c1cc(Cl)c2cncn2c1N1CCC(Br)CC1 (racemic) [Example 147, 2-Amino-N-{1-[5-(4-bromopiperidin-1-yl)-8-chloroimidazo[1,5-a]pyridin-6-yl]ethyl}pyrazolo[1,5-a]pyrimidine-3-carboxamide trifluoroacetate salt] |
